Test results taken from ChEMBL document CHEMBL2331126, “Alkyl esters of gallic acid as anticancer agents: a review” (Eur J Med Chem, 2013).
In brackets after ≈: the same amount, converted by molar mass.

Tests used:
B16-F10 = assay: Cytotoxicity against mouse B16F10 cells; type: functional, cell-based
CCRF-CEM = assay: Cytotoxicity against human CEM cells; type: cell-based
L1210 = assay: Cytotoxicity against mouse L1210 cells; type: functional, cell-based
MDA-MB-231 = assay: Cytotoxicity against human MDA-MB-231 cells; type: functional, cell-based
[1] = Cytotoxicity against mouse WEHI231 cells; type: functional, cell-based
L929 = assay: Cytotoxicity against mouse L929 cells; type: functional, cell-based
HL-60 = assay: Cytotoxicity against human HL60 cells; type: functional, cell-based
[2] = Cytotoxicity against human HL60RG cells; type: functional, cell-based
[3] = Cytotoxicity against rat endothelial cells; conditions: Endothelial cell
[4] = biological target: Disintegrin and metalloproteinase domain-containing protein 17 (Homo sapiens) (UniProt P78536); assay: Inhibition of ADAM17 alpha-secretase activity in human […] cells using amyloid beta precursor protein as substrate at 40 ug/ml after 24 hrs by fluorimetric analysis; type: cell-based
Chain of Disintegrin and metalloproteinase domain-containing protein 17 (Homo sapiens) (P78536 whole entry, the tested form may be a part): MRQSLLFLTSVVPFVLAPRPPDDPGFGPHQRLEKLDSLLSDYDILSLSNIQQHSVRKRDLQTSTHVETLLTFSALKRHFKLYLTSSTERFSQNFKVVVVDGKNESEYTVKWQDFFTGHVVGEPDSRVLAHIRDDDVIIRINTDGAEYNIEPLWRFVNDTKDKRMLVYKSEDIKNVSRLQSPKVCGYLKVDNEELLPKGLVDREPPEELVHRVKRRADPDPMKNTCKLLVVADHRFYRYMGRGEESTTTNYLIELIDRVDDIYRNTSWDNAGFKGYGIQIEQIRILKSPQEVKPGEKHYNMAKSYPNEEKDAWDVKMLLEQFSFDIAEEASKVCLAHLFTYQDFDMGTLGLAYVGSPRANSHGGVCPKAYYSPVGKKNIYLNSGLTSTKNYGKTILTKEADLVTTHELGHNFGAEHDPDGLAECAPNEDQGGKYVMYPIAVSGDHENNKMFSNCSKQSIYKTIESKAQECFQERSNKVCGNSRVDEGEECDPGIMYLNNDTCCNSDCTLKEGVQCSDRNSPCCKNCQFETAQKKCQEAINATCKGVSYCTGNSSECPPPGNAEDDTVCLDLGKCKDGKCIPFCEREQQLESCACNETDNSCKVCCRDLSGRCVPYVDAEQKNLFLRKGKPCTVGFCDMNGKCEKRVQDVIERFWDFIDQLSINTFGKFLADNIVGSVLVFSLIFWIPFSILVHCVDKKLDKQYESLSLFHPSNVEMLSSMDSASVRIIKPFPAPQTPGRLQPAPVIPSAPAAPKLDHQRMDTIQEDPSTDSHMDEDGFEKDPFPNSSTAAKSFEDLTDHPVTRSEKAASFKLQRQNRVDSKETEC

[5] = Cytotoxicity against rat fibroblast cells; type: cell-based
Calu-6 = assay: Cytotoxicity against human Calu6 cells; type: functional, cell-based
U-251 [6] = assay: Antimigratory activity against human U251 cells at 30 ug/ml after 8 hrs by wound closure assay; type: functional
[7] = Antimigratory activity against human U87 cells at 40 ug/ml after 8 hrs by wound closure assay; type: functional, U-87MG ATCC
[8] = Cytotoxicity against rat dRLh-84 cells; type: functional, cell-based
U-251 [9] = assay: Antimigratory activity against human U251 cells at 40 ug/ml after 8 hrs by wound closure assay; type: functional
[10] = Cytotoxicity against human PLC/PRF/5 cells; type: functional, cell-based
P388-D1 (Mus musculus) = assay: Cytotoxicity against mouse P388D1 cells
[11] = biological target: Disintegrin and metalloproteinase domain-containing protein 17 (Homo sapiens) (UniProt P78536); assay: Inhibition of ADAM17 alpha-secretase activity in human […] cells using amyloid beta precursor protein as substrate at 30 ug/ml after 24 hrs by fluorimetric analysis; type: cell-based
[12] = biological target: Disintegrin and metalloproteinase domain-containing protein 17 (Homo sapiens) (UniProt P78536); assay: Inhibition of ADAM17 alpha-secretase activity in human […] cells using amyloid beta precursor protein as substrate at 20 ug/ml after 24 hrs by fluorimetric analysis; type: cell-based
[13] = Antimigratory activity against human U87 cells at 30 ug/ml after 8 hrs by wound closure assay; type: functional, U-87MG ATCC
HeLa = assay: Cytotoxicity against human HeLa cells; type: functional, cell-based
K562 [14] = assay: Cytotoxicity against human imatinib-resistant K562 cells; type: functional, cell-based
KB = assay: Cytotoxicity against human KB cells; type: functional, cell-based
K562 [15] = assay: Cytotoxicity against human K562 cells; type: functional, cell-based
A549 = assay: Cytotoxicity against human A549 cells; type: functional, cell-based

Row | SMILES | IC50 (B16-F10) [µM] | IC50 (CCRF-CEM) [µM] | IC50 (L1210) [µM] | IC50 [1] [µM] | IC50 (L929) [µM] | IC50 (HL-60) [µM] | IC50 (HeLa) [µM] | other results
1 | CCCCCCCCCCOC(=O)c1cc(O)c(O)c(O)c1 [DECYL GALLATE] | 82 | 9.8 | 12.2 | – | – | – | – | –
2 | CCCCCCCCCCCCOC(=O)c1cc(O)c(O)c(O)c1 [DODECYL GALLATE] | 48 | 47.4 | 10.9 | 1 | 1 | 33 | – | IC50 (MDA-MB-231): 1 µM
3 | O=C(O)c1cc(O)c(O)c(O)c1 [GALLIC ACID] | – | – | – | 40 | 250 | 300 | 358 | IC50 [2]: 317 µM; IC50 [3]: > 20 µg/mL; inhibition [4]: 38.9%; IC50 [5]: > 20 µg/mL; IC50 (Calu-6): 10 µM; Activity (U-251 [6]): 51%; Activity [7]: 30%; IC50 [8]: 364 µM; Activity (U-251 [9]): 31%; IC50 [10]: 387 µM; IC50 (P388-D1 (Mus musculus)): 282 µM; inhibition [11]: 43.5%; inhibition [12]: 47.9%; Activity [13]: 29%; IC50 (K562 [14]): 4.75 µM; IC50 (KB): 13.2 µg/mL (≈ 77.6 µM); IC50 (K562 [15]): 33 µM; IC50 (A549): 100 µM
4 | CCCCCCCCOC(=O)c1cc(O)c(O)c(O)c1 [OCTYL_GALLATE] | 45 | 50 | 22 | 1.5 | 1 | – | – | –
5 | CCCOC(=O)c1cc(O)c(O)c(O)c1 [PROPYL GALLATE] | – | – | – | 12 | 40 | – | 800 | –
6 | CCCCCCCCCCCCCCOC(=O)c1cc(O)c(O)c(O)c1 [TETRADECYL GALLATE] | 60 | > 50 | 8.5 | – | – | – | – | –
